# According to patent publication US20210221784A1, “COMPOUNDS AND COMPOSITIONS FOR THE TREATMENT OF PAIN” (Université de Strasbourg, priority 2018, published 2021):
# Structures can show the parent of a compound that is named as a salt.
# Legend:
# [1] = molecular target: T1, human NPFFR1 (hNPFFR1) receptor (Homo sapiens, UniProt Q9GZQ6); experiment: Human NPFFR1 evaluation using BRET biosensors in HEK-293 T cells; type: cell-based; details: hNPFFR1 in HEK-293 T cells, stimulated by EC80 RFRP-3, read-out: IC50 of antagonist activity
# T1 construct: expressed in transfected cells; host or cells: HEK-293 T cells, transient co-transfection
# T1 sequence (Q9GZQ6 whole entry): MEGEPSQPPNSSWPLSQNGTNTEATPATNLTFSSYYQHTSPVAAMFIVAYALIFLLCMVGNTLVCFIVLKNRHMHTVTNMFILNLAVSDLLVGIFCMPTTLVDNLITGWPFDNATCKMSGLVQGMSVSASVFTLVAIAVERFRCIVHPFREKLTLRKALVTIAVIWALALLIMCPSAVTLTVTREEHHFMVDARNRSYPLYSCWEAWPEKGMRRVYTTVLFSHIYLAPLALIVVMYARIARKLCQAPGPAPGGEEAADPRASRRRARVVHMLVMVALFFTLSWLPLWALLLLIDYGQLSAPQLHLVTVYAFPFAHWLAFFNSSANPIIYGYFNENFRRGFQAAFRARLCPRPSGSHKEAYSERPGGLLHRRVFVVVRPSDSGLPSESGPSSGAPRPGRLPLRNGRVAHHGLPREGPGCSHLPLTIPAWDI
# Protocol: Compounds of the present invention were tested successively for their agonist and antagonist activities on human NPFFR1 (hNPFFR1) receptor transiently over-expressed in HEK-293 T cells. Compounds exert agonist activity if, by themselves in absence of neuropeptide RFRP-3 (also named NPVF) they activate hNPFFR1; and they exert antagonist activity if they decrease the action of RFRP-3 on the receptor. The assay used to measure compound activity is based on BRET (Bioluminescence Resonance Energy Transfer) biosensors and is designed to monitor the plasma membrane translocation of protein that interacts with specific Ga subunit. The specific effector (luciferase tagged: BRET donor) recruited at the membrane will be in close proximity to a plasma membrane anchor (GFP tagged: BRET acceptor) to induce a BRET signal (Ramdan et al, 2006, Chapter 5, Current Protocols in Neuroscience).
# HEK-293 T cells are maintained in Dulbecco's Modified Eagle's Medium supplemented with 10% Foetal Calf Serum, 1% Penicillin/Streptomycin at 37° C./5% CO2. Cells are co-transfected using polyethylenimine (25 kDa linear) with four DNA plasmids encoding; hNPFFR1, GαoB, a Gi family specific intracellular effector fused to luciferase (BRET donor), a plasma membrane effector fused to GFP (BRET acceptor). After transfection, cells are cultured for 48 h at 37° C./5% CO2.
# Receptor activity is detected by changes in BRET signal.
# On the day of the assay, cells are detached using trypsin 0.05%, resuspended in assay buffer (1.8 mM CaCl2, 1 mM MgCl2, 2.7 mM KCl, 137 mM NaCl, 0.4 mM NaH2PO4, 5.5 mM D-Glucose, 11.9 mM NaHCO3, 25 mM Hepes) and seeded in 384 well plate at a density of 20,000 cells per well. Then, plates are equilibrated 3.5 hours at 37° C. before adding compounds.
# Compounds and luciferase substrate are added to the cells using an automated device (Freedom Evo®, Tecan) and BRET readings are collected on EnVision (PerkinElmer) with specific filters (410 nm BW 80 nm, 515 nm BW 30 nm).
# Agonist and antagonist activities of compounds are consecutively evaluated on the same cell plate. Agonist activity is first measured after 10 minutes incubation with compound alone on the cells. Then, cells are stimulated by an EC80 RFRP-3 concentration and luminescence is recorded for additional 10 minutes. EC80 RFRP-3 concentration is the concentration giving 80% of the maximal RFRP-3 response. Agonist or antagonist activities are evaluated in comparison to basal signals evoked by assay buffer or EC80 RFRP-3 alone, respectively.
# For IC50 determination, a dose-response test is performed using 20 concentrations (ranging over 6 logs) of each compound. Dose-response curves are fitted using the sigmoidal dose-response (variable slope) analysis in GraphPad Prism software (GraphPad Software) and IC50 of antagonist activity is calculated. Dose-response experiments are performed in duplicate, in two independent experiments.
# hNPFFR1 = molecular target: T2, hNPFFR1 (Homo sapiens, UniProt Q9GZQ6); experiment: Radioligand binding competition, membranes from CHO cells expressing hNPFFR1; details: 0.015 nM [D-Tyr1[125I], N-MePhe3]-NPFF, 1 hr at 25° C., read-out: NPFF1-R Ki
# T2 construct: expressed in transfected cells; membranes
# T2 sequence (Q9GZQ6 whole entry): as above
# Protocol: Competition experiments with membranes from CHO cells stably expressing hNPFFR1 and hNPFFR2 were performed essentially as described in Elhabazi, K., et al. Neuropharmacology, 2013. 75C, 164-171., Briefly, hNPFFR1 or hNPFFR2 membranes (5 to 10 μg of proteins) were incubated (1 hr at 25° C.; 0.25 mL total volume) with 0.015 nM [D-Tyr1[125I], N-MePhe3]-NPFF (Hartmann Analytic GmbH) in 50 mM HEPES (pH 7.4), 1 mM CaCl2, 1 mM MgCl2 and 0.1% bovine serum albumin. Non-specific binding was determined in the presence of 10 μM RFRP-3. Incubation was terminated by rapid filtration through a 96-well GF/B unifilter apparatus (Perkin Elmer Life and Analytical Sciences, Courtaboeuf, France). Unifilters were washed five times with binding buffer, then dried for 1 h at 65° C. After addition of 40 μL scintillation cocktail (Microscint-O, Perkin Elmer) per well, bound radioactivity was determined on a TopCount scintillation counter (Perkin Elmer).
melting point,Compound,also measured
175 to 178 °C,"COc1ccccc1-c1ccc(N)nc1F [Compound 32, 6-Fluoro-5-(2-methoxy-phenyl)-pyridin-2-ylamine]",–
> 250 °C,Cl.Nc1cc(OCC(F)(F)F)c(-c2cccc(Cl)c2Cl)cn1,–
60 to 70 °C,"CC(=O)Nc1ccccc1-c1ccc(N)nc1N [Compound 62, N-[2-(2,6-Diamino-pyridin-3-yl)-phenyl]-acetamide]",–
201 to 205 °C,"Nc1ccc(-c2ccc(N3CCOCC3)nc2)c(N)n1 [Compound 78, 3-(6-morpholino-3-pyridyl)pyridine-2,6-diamine]",–
85 to 88 °C,"COc1ccccc1-c1cnc(N)cc1C [Compound 21, 5-(2-Methoxy-phenyl)-4-methyl-pyridin-2-ylamine]",–
92 to 95 °C,"COc1ccccc1-c1cnc(N)c(C)c1 [Compound 13, 5-(2-Methoxy-phenyl)-3-methyl-pyridin-2-ylamine]",–
155 to 159 °C,"Nc1ccc(-c2ccc(N3CCCCC3)nc2)c(N)n1 [Compound 79, 3-[6-(1-piperidyl)-3-pyridyl]pyridine-2,6-diamine]",–
–,"Nc1ccc(-c2ccccc2Oc2ccccc2)c(N)n1 [Compound 43, 3-(2-Phenoxy-phenyl)-pyridine-2,6-diamine]",IC50 [1]: 100 to 500 nM
–,"Nc1ccc(-c2ccncc2)c(N)n1 [Compound 3d, [3,4′-bipyridine]-2,6-diamine]",Ki (hNPFFR1): 5390 nM
140 to 145 °C,"Cc1cc(N)nc(C)c1-c1cccc(Cl)c1Cl [Compound 28, 5-(2,3-Dichloro-phenyl)-4,6-dimethyl-pyridin-2-ylamine]",–
183 to 190 °C,"NCCOc1nc(N)ccc1-c1cccc(Cl)c1Cl (as salt: hydrochloride) [Compound 38, 6-(2-Amino-ethoxy)-5-(2,3-dichloro-phenyl)-pyridin-2-ylamine]",–
–,"COc1ccncc1-c1ccc(N)nc1N [Compound 88, 3-(4-methoxy-3-pyridyl)pyridine-2,6-diamine]",IC50 [1]: > 1000 nM
–,"CN(C)c1ccccc1-c1ccc(N)nc1N [Compound 61, 3-(2-Dimethylamino-phenyl)-pyridine-2,6-diamine]",IC50 [1]: 100 to 500 nM
–,"Nc1ccc(-c2cccnc2)c(N)n1 [Compound 3e, [3,3′-bipyridine]-2,6-diamine]",Ki (hNPFFR1): 1930 nM
–,"COc1cccc(OC(C)C)c1-c1ccc(N)nc1N [Compound 39, 3-(2-Isopropoxy-6-methoxy-phenyl)-pyridine-2,6-diamine]",IC50 [1]: > 1000 nM
–,"Nc1ccc(-c2cc(Cl)ccc2C2CC2)c(N)n1 [Compound 55, 3-(5-Chloro-2-cyclopropyl-phenyl)-pyridine-2,6-diamine]",IC50 [1]: 100 to 500 nM
178 to 182 °C,"CNc1ccc(-c2ccc(N)nc2N)cn1 [Compound 80, 3-[6-(methylamino)-3-pyridyl]pyridine-2,6-diamine]",–
> 250 °C,COc1cc(N)ncc1-c1cccc(Cl)c1Cl.Cl,–
197 to 203 °C,"COc1ccccc1-c1ccc(N)nc1OCCN [Compound 37, 6-(2-Amino-ethoxy)-5-(2-methoxy-phenyl)-pyridin-2-ylamine]",–
–,"Nc1ccc(-c2ccccc2Cc2ccccc2)c(N)n1 [Compound 44, 3-(2-Benzyl-phenyl)-pyridine-2,6-diamine]",IC50 [1]: 100 to 500 nM
165 to 170 °C,"Nc1ccc(-c2cccc(Cl)c2Cl)c(C(F)(F)F)n1 [Compound 34, 5-(2,3-Dichloro-phenyl)-6-trifluoromethyl-pyridin-2-ylamine]",–
220 to 240 °C,"Nc1ccc(-c2ccc(N)nc2N)cn1 [Compound 82, 3-(6-amino-3-pyridyl)pyridine-2,6-diamine]",–

melting point,Compound,also measured
130 to 136 °C,"Nc1ncc(-c2cccc(Cl)c2Cl)cc1F [Compound 16, 5-(2,3-Dichloro-phenyl)-3-fluoro-pyridin-2-ylamine]",–
> 250 °C,"Cc1n[nH]c(C)c1-c1ccc(N)nc1N [Compound 90, 3-(3,5-dimethyl-1H-pyrazol-4-yl)pyridine-2,6-diamine]",–
107 to 112 °C,"Nc1cc(F)c(-c2cccc(Cl)c2Cl)cn1 [Compound 17, 5-(2,3-Dichloro-phenyl)-4-fluoro-pyridin-2-ylamine]",–
218 to 224 °C,COc1ccccc1-c1cnc(N)cc1OCCN.Cl,–
–,"CCc1nc(N)ccc1-c1cccc(Cl)c1C [Compound 29, 5-(3-chloro-2-methyl-phenyl)-6-ethyl-pyridin-2-ylamine]",IC50 [1]: 100 to 500 nM
140 to 144 °C,"COc1ccccc1-c1cnc(N)cc1OC [Compound 20, 4-Methoxy-5-(2-methoxy-phenyl)-pyridin-2-ylamine]",–
128 to 135 °C,"Cc1c(Cl)cccc1-c1cc(F)c(N)nc1N [Compound 66, 3-(3-Chloro-2-methyl-phenyl)-5-fluoro-pyridine-2,6-diamine]",–
–,"Nc1ccc(-c2ccccc2OC(F)(F)F)c(N)n1 [Compound 2c, 3-(2-(trifluoromethoxy)phenyl) pyridine-2,6-diamine]",Ki (hNPFFR1): 34 nM; IC50 [1]: 500 to 1000 nM
238 to 240 °C,COc1ccccc1-c1cnc(N)cc1OCC(F)(F)F.Cl,–
184 to 188 °C,"Nc1ccc(-c2cccnc2F)c(N)n1 [Compound 87, 3-(2-fluoro-3-pyridyl)pyridine-2,6-diamine]",–
63 to 67 °C,"COc1ccccc1-c1cnc(N)c(C(F)(F)F)c1 [Compound 14, 5-(2-Methoxy-phenyl)-3-trifluoromethyl-pyridin-2-ylamine]",–
–,"Nc1ccc(-c2ccccc2OC2CC2)c(N)n1 [Compound 48, 3-(2-Cyclopropoxy-phenyl)-pyridine-2,6-diamine]",IC50 [1]: 100 to 500 nM
175 to 181 °C,CN(C)c1ccc(-c2ccc(N)nc2N)c2ccccc12.Cl,–
–,"Nc1ccc(-c2ccc(Cl)cc2OC2CCCC2)c(N)n1 [Compound 47, 3-(4-Chloro-2-cyclopentyloxy-phenyl)-pyridine-2,6-diamine]",IC50 [1]: 500 to 1000 nM
154 to 155 °C,"Nc1ccc(-c2cnc(N)c(C(F)(F)F)c2)c(N)n1 [Compound 83, 3-[6-amino-5-(trifluoromethyl)-3-pyridyl]pyridine-2,6-diamine]",–
85 to 87 °C,"COc1ccccc1-c1ccc(N)nc1OC [Compound 35, 6-Methoxy-5-(2-methoxy-phenyl)-pyridin-2-ylamine]",–
–,"Nc1ccc(-c2ccccc2C2CC2)c(N)n1 [Compound 42, 3-(2-Cyclopropyl-phenyl)-pyridine-2,6-diamine]",IC50 [1]: < 100 nM
139 to 144 °C,"Nc1ccc(-c2cccc(Cl)c2Cl)c(F)n1 [Compound 33, 5-(2,3-Dichloro-phenyl)-6-fluoro-pyridin-2-ylamine]",–
75 to 79 °C,"COc1ccccc1-c1cnc(N)c(F)c1 [Compound 15, 3-Fluoro-5-(2-methoxy-phenyl)-pyridin-2-ylamine]",–
–,"Nc1ccc(-c2ccccc2)c(N)n1 [Compound 1a, 3-phenylpyridine-2,6-diamine]",Ki (hNPFFR1): 188 nM; IC50 [1]: > 1000 nM
65 to 70 °C,"COc1ccccc1-c1cnc(N)cc1F [Compound 18, 4-Fluoro-5-(2-methoxy-phenyl)-pyridin-2-ylamine]",–
